Source: patent US20250154138A1, “Small Molecule IL-17A Modulators” (BeiGene, Ltd., priority 2022, published 2025)

Experiments:
[1] = target: human IL-17A / human IL-17RA (Homo sapiens (Human), UniProt Q16552); assay: Human IL-17A biochemical assay (HTRF, blocking of IL-17A binding to IL-17RA); details: 0.4 nM IL-17A, 0.3 nM IL-17RA, max compound concentration 10 uM
In short: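 0.4 nM hIL-17A + cpd (10 uM top, 2.7x, 10 pt), 3 h RT, HEPES pH 7.5 buffer w/ BSA, DTT, Tween 20; + 0.3 nM hIL-17RA 1 h RT; Tb/XL665 Abs 1 h; HTRF 620/665 ratio; 4PL IC50.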

[2] = test system: IL-17-induced GROα secretion from HT-29 cells; assay: GROα release assay in human colorectal adenocarcinoma epithelial cell (HT-29, ELISA); format: cell-based; details: Homo sapiens, HT-29, 48 h, 10 ng/mL IL-17A, highest concentration 10 μM, read-out: Cellular assay HT29 cell/CXCL1 IC50
Procedure: The purpose of the assay is to test the ability of a compound to neutralize IL17A proteins. IL17 can stimulate human epithelial cells to secrete GROα. The ability of one compound of the invention to neutralize IL-17-induced GROα secretion from the human colorectal adenocarcinoma epithelia cell line HT-29 is tested in this assay.
HT-29 cells (human colorectal adenocarcinoma epithelia cell, ATCC) were stimulated with IL-17A (Novoprotein, #C774) in final concentration of 10 ng/mL. The resultant GROα response was measured using an ELISA kit from Invitrogen (#88-52122). HT-29 cells were cultured in complete medium (McCoy's 5A medium+10% FBS) and maintained in a tissue culture flask using standard techniques. On day 1, detached the cell by using TrypLE (Gibco, #12605036) and used the complete medium to neutralize. The cells were centrifuged at 11,00 rmp for 4 minutes. Re-suspended the cell pellet in complete medium and seeded 50,000 HT-29 cells into the 96-well assay plate (Corning, 3599) at 135 μL complete medium per well. The cells were incubated for overnight, at 37° C./5% CO2 to adherent the plate. On day 2, prepared a 4-fold serial dilution of the tested compound in DMSO. The highest concentration of the compound was 10 μM. Transferred 2 μL of the serial diluted compound from the serial dilution plate into the reagent plate which was contained 198 μL complete medium with 100 ng/mL IL-17A per well. The compounds were incubated with the IL-17A for 15 minutes. 15 μL mixtures from reagent plate were transferred into the cell assay plate. Incubated the plate at 37° C./5% CO2 for 48 hours. After the incubation, on day 4, GROα level were measured with GROα ELISA as the manufacturer's instructions. 50 μL supernatant was collected form the assay plate to ELISA plate. ELISA plate was read at 450 nm on a microplate reader and compared to a standard calibration curve.
Data were processed using GraphPad Prism. GROα concentration was calculated from the standard curve. IC50 was determined using the equation log concentration (inhibitor) against response and fitted to four parameters.

Chain of human IL-17A / human IL-17RA (Q16552 24-155): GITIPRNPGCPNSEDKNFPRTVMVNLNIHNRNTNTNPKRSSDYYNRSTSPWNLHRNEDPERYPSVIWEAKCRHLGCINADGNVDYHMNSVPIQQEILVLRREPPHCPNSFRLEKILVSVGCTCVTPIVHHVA

CCC1CCC(C(NC(=O)c2ccnn2C)C(=O)Nc2ccc3c(c2)CC(C(=O)NC)(N2CC4(CCC4)CNC2=O)C3)CC1 (stereo not shown) [Example 125, N-(1-(4-ethylcyclohexyl)-2-((2-(methylcarbamoyl)-2-(7-oxo-6,8-diazaspiro[3.5]nonan-6-yl)-2,3-dihydro-1H-inden-5-yl)amino)-2-oxoethyl)-1-methyl-1H-pyrazole-5-carboxamide]
IC50 [1]: 5.6 nM
IC50 [2]: 25.8 nM

CNC(=O)C1(N2C[C@@H](C(C)C)NC2=O)Cc2ccc(NC(=O)[C@@H](NC(=O)c3cnn(C)c3)C3CCCCC3)cc2C1 (stereo partly drawn) [Example 61, N-((1S)-1-cyclohexyl-2-((2-((R)-4-isopropyl-2-oxoimidazolidin-1-yl)-2-(methylcarbamoyl)-2,3-dihydro-1H-inden-5-yl)amino)-2-oxoethyl)-1-methyl-1H-pyrazole-4-carboxamide]
IC50 [1]: 857 nM
IC50 [2]: 4960 nM

CC(C)[C@@H]1CN(C2(C(=O)NC(CO)C3CCC3)Cc3ccc(NC(=O)[C@@H](NC(=O)c4ccnn4C)C4CCCCC4)cc3C2)C(=O)N1 (stereo partly drawn) [Example 86, N-((1S)-2-((2-((1-cyclobutyl-2-hydroxyethyl)carbamoyl)-2-((R)-4-isopropyl-2-oxoimidazolidin-1-yl)-2,3-dihydro-1H-inden-5-yl)amino)-1-cyclohexyl-2-oxoethyl)-1-methyl-1H-pyrazole-5-carboxamide]
IC50 [1]: 22 nM
IC50 [2]: 23.5 nM

CNC(=O)C1(N2C(=O)NCC2C)Cc2ccc(NC(=O)[C@@H](NC(=O)c3ccnn3C)C3CCCCC3)cc2C1 (stereo partly drawn) [Example 17, N-((1S)-1-cyclohexyl-2-((2-(5-methyl-2-oxoimidazolidin-1-yl)-2-(methylcarbamoyl)-2,3-dihydro-1H-inden-5-yl)amino)-2-oxoethyl)-1-methyl-1H-pyrazole-5-carboxamide]
IC50 [1]: 2500 nM
IC50 [2]: 2640 nM

Cc1nonc1C(=O)N[C@H](C(=O)Nc1ccc2c(c1)CC(C(O)C(F)(F)F)(N1CC(C(F)(F)F)NC1=O)C2)C(C1CC1)C1CC1 (stereo partly drawn) [Example 270, N-((2S)-1,1-dicyclopropyl-3-oxo-3-((2-(2-oxo-4-(trifluoromethyl)imidazolidin-1-yl)-2-(2,2,2-trifluoro-1-hydroxyethyl)-2,3-dihydro-1H-inden-5-yl)amino)propan-2-yl)-4-methyl-1,2,5-oxadiazole-3-carboxamide]
IC50 [1]: 200 nM
IC50 [2]: 350 nM

Cc1nonc1C(=O)N[C@H](C(=O)Nc1ccc2c(c1)CC(C(=O)Nc1ccc(Cl)cc1)(N1C[C@@H](C(C)C)NC1=O)C2)C(C1CC1)C1CC1 (stereo partly drawn) [Example 269, N-((2S)-1-((2-((4-chlorophenyl)carbamoyl)-2-((R)-4-isopropyl-2-oxoimidazolidin-1-yl)-2,3-dihydro-1H-inden-5-yl)amino)-3,3-dicyclopropyl-1-oxopropan-2-yl)-4-methyl-1,2,5-oxadiazole-3-carboxamide]
IC50 [1]: 416 nM
IC50 [2]: 1070 nM

Cc1nonc1C(=O)N[C@H](C(=O)Nc1ccc2c(c1)CC(N1C[C@@H](C(F)(F)F)NC1=O)C2)C(C1CC1)C1CC1 (stereo partly drawn) [Example 183, N-((2S)-1,1-dicyclopropyl-3-oxo-3-((2-((S)-2-oxo-4-(trifluoromethyl)imidazolidin-1-yl)-2,3-dihydro-1H-inden-5-yl)amino)propan-2-yl)-4-methyl-1,2,5-oxadiazole-3-carboxamide]
IC50 [1]: 768 nM
IC50 [2]: 370 nM

CNC(=O)C1(N2C[C@@H](C(C)C)NC2=O)Cc2ccc(NC(=O)C(NC(=O)c3ccnn3C)C3CCC4(CC3)CC4)cc2C1 (stereo partly drawn) [Example 112, N-(2-((2-((R)-4-isopropyl-2-oxoimidazolidin-1-yl)-2-(methylcarbamoyl)-2,3-dihydro-1H-inden-5-yl)amino)-2-oxo-1-(spiro[2.5]octan-6-yl)ethyl)-1-methyl-1H-pyrazole-5-carboxamide]
IC50 [1]: 41 nM
IC50 [2]: 181 nM

COCC1(N2CC(C)NC2=O)Cc2ccc(NC(=O)[C@@H](NC(=O)c3ccnn3C)C3CCCCC3)cc2C1 (stereo partly drawn) [Example 2, N-((1S)-1-cyclohexyl-2-((2-(methoxymethyl)-2-(4-methyl-2-oxoimidazolidin-1-yl)-2,3-dihydro-1H-inden-5-yl)amino)-2-oxoethyl)-1-methyl-1H-pyrazole-5-carboxamide]
IC50 [1]: 1100 nM
IC50 [2]: 2560 nM

Cc1nonc1C(=O)N[C@H](C(=O)Nc1ccc2c(c1)CC(C(=O)Nc1cc(F)ccc1Cl)(N1C[C@@H](C(C)C)NC1=O)C2)C(C1CC1)C1CC1 (stereo partly drawn) [Example 278, N-((2S)-1-((2-((2-chloro-5-fluorophenyl)carbamoyl)-2-((R)-4-isopropyl-2-oxoimidazolidin-1-yl)-2,3-dihydro-1H-inden-5-yl)amino)-3,3-dicyclopropyl-1-oxopropan-2-yl)-4-methyl-1,2,5-oxadiazole-3-carboxamide]
IC50 [1]: 333 nM
IC50 [2]: 122 nM

CCCC1CN(C2(C(=O)NC)Cc3ccc(NC(=O)[C@@H](NC(=O)c4ccnn4C)C4CCCCC4)cc3C2)C(=O)N1 (stereo partly drawn) [Example 26, N-((1S)-1-cyclohexyl-2-((2-(methylcarbamoyl)-2-(2-oxo-4-propylimidazolidin-1-yl)-2,3-dihydro-1H-inden-5-yl)amino)-2-oxoethyl)-1-methyl-1H-pyrazole-5-carboxamide]
IC50 [1]: 360 nM
IC50 [2]: 1080 nM

CNC(=O)C1(N2CC(C(C)C(F)(F)F)NC2=O)Cc2ccc(NC(=O)[C@@H](NC(=O)c3ccnn3C)C3CCCCC3)cc2C1 (stereo partly drawn) [Example 81, N-((1S)-1-cyclohexyl-2-((2-(methylcarbamoyl)-2-(2-oxo-4-(1,1,1-trifluoropropan-2-yl)imidazolidin-1-yl)-2,3-dihydro-1H-inden-5-yl)amino)-2-oxoethyl)-1-methyl-1H-pyrazole-5-carboxamide]
IC50 [1]: 75 nM
IC50 [2]: 702 nM

Cc1nonc1C(=O)N[C@H](C(=O)Nc1ccc2c(c1)CC(C(=O)NC1(c3ccccc3F)CC1)(N1CC3(CC3)CNC1=O)C2)C1CCC(F)(F)CC1 (stereo partly drawn) [Example 232, N-((1S)-1-(4,4-difluorocyclohexyl)-2-((2-((1-(2-fluorophenyl)cyclopropyl)carbamoyl)-2-(6-oxo-5,7-diazaspiro[2.5]octan-5-yl)-2,3-dihydro-1H-inden-5-yl)amino)-2-oxoethyl)-4-methyl-1,2,5-oxadiazole-3-carboxamide]
IC50 [1]: 117 nM
IC50 [2]: 158 nM

CC[C@H]1CC[C@H]([C@H](NC(=O)c2ccnn2C)C(=O)Nc2ccc3c(c2)CC(C(=O)NC)(N2CC4(CC4)CNC2=O)C3)CC1 (stereo partly drawn) [Example 171, N-((1S)-1-((1r,4S)-4-ethylcyclohexyl)-2-((2-(methylcarbamoyl)-2-(6-oxo-5,7-diazaspiro[2.5]octan-5-yl)-2,3-dihydro-1H-inden-5-yl)amino)-2-oxoethyl)-1-methyl-1H-pyrazole-5-carboxamide]
IC50 [1]: 7 nM
IC50 [2]: 9.7 nM

CNC(=O)C1(N2C[C@@H](C3CC3)NC2=O)Cc2ccc(NC(=O)[C@@H](NC(=O)c3ccnn3C)C3CCCCC3)cc2C1 (stereo partly drawn) [Example 41, N-((1S)-1-cyclohexyl-2-((2-((R)-4-cyclopropyl-2-oxoimidazolidin-1-yl)-2-(methylcarbamoyl)-2,3-dihydro-1H-inden-5-yl)amino)-2-oxoethyl)-1-methyl-1H-pyrazole-5-carboxamide]
IC50 [1]: 100 nM
IC50 [2]: 495 nM

Cn1nccc1C(=O)N[C@H](C(=O)Nc1ccc2c(c1)CC(CNc1ccccc1F)(N1CC3(CC3)CNC1=O)C2)C1CCCCC1 (stereo partly drawn) [Example 172, N-((1S)-1-cyclohexyl-2-((2-(((2-fluorophenyl)amino)methyl)-2-(6-oxo-5,7-diazaspiro[2.5]octan-5-yl)-2,3-dihydro-1H-inden-5-yl)amino)-2-oxoethyl)-1-methyl-1H-pyrazole-5-carboxamide]
IC50 [1]: 400 nM
IC50 [2]: 377 nM

CCC1CCC(C(NC(=O)c2ccnn2C)C(=O)Nc2ccc3c(c2)CC(C(=O)NC)(N2CC4(CC4)CNC2=O)C3)CC1 (stereo not shown) [Example 139, N-(1-(4-ethylcyclohexyl)-2-((2-(methylcarbamoyl)-2-(6-oxo-5,7-diazaspiro[2.5]octan-5-yl)-2,3-dihydro-1H-inden-5-yl)amino)-2-oxoethyl)-1-methyl-1H-pyrazole-5-carboxamide]
IC50 [1]: 10 nM
IC50 [2]: 21.9 nM
